Data taken from article PMC11714165, “Bone‐Targeted Fluoropeptide Nanoparticle Inhibits NF‐κB Signaling to Treat Osteosarcoma and Tumor‐Induced Bone Destruction” (Advanced Science, 2024).
Residues, ends and D or L forms follow the SMILES beside them. *: point of attachment. X1 = O=C(OCCC(F)(F)C(F)(F)C(F)(F)C(F)(F)C(F)(F)C(F)(F)F)c1ccc(C=NN*)cc1; FITC = O=C1OC2(c3ccc(O)cc3Oc3cc(O)ccc32)c2ccc(NC(=S)*)cc21; NHNH2 = NN*

Legend:
[1] = tested on: 143B cells; assay: LDH release assay; assay type: cell-based, human; settings: varying doses, 24 h, n = 3
Experimental: For the LDH assay, different concentrations of peptides were added to 143B cells as described above. The LDH released from the cells was measured by the manufacturer's protocol (Beyotime) after 24 h of incubation. Briefly, a new plate was used to transfer the solution of each well and treat it with lysis buffer at 37 °C for another 1 h. Each well was then incubated with the LDH working solution for 30 min. LDH activity was measured at 490 nm. Negative control cells were non‐treated, while positive control cells were treated with lysis buffer for 1 h directly. All samples were tested in triplicate.

[2] = tested on: mouse red blood cell; assay: Hemolysis of red blood cell suspension; assay type: cell-based; settings: 2% mouse red blood cell suspension, different concentrations, 37 °C, 2 h, 1% Triton X‐100 positive control, n = 3
Experimental: Figure 3 Bioactivity of fluorous NBD nanoparticles. A) Schematic illustration of the NBD peptide inhibiting the NF‐κB pathway. B) WB analysis of p65, IκB, and phosphorylated p65 and IκB, respectively in BMM cells treated with RANKL for 2 h and then further incubated with different peptides (25 µM) for 24 h. C) Representative images of TRAP staining in BMM cells treated with PBS, NBD, NBD‐T, and NBD‐F respectively for osteoclast differentiation. The concentration of peptides was 25 µM. D) Quantification of the number of TRAP‐positive multinucleated osteoclasts (≥ 3 nuclei) based on the images in C). n = 5. Cell viability E) and LDH release F) of 143B cells exposed for 24 h to varying doses of NBD, NBD‐T, and NBD‐F, respectively. n = 3. G) Apoptosis analysis of 143B cells stained with FITC‐annexin V and propidium iodide (PI) for 24 h following treatment with NBD, NBD‐T, and NBD‐F, respectively. H) Images of 2% mouse red blood cell suspension incubated with different concentrations of NBD‐F or NBD‐T at 37 °C for 2 h. Triton X‐100 at 1% (Tx‐100) was used as a positive control. PBS was used as a negative control. […] Relative hemolysis was tested as [(As‐An)/(Ap‐An)] × 100%, where As, Ap, and An are the UV absorbances of the sample, positive control, and negative control, respectively (n = 3). *p < 0.05, **p < 0.01, ***p < 0.001, and ****p < 0.0001. […]

[3] = tested on: 143B cells; assay: Intracellular peptide delivery, confocal microscopy and flow cytometry; assay type: cell-based, human
Experimental: 10 µM of ^FINBD, ^FINBD‐F, or ^FINBD‐T was added to confocal dishes (diameter: 35 mm) when the 143B cells reached 90% confluence. After a 6 h incubation, the cells were rinsed with trypan blue and PBS, followed by imaging using a LSCM.
For flow cytometry analysis, the peptide ^FINBD, ^FINBD‐F, or ^FINBD‐T was added to 143B cells, following the aforementioned protocols. Subsequently, cells were digested using 0.25% trypsin, resuspended in PBS, and subjected to quantitative analysis of delivery efficiency using flow cytometry (CytoFLEX, BECKMAN, USA).
A control group consisted of ^FINBD‐F treated 143B cells in the absence of inhibitors (37 °C). Finally, LSCM was employed to observe internalized ^FINBD‐F in the treated cells.

For CC(C)C[C@H](NC(=O)[C@H](C)NC(=O)[C@@H](N)[C@@H](C)O)C(=O)N[C@@H](CC(=O)O)C(=O)N[C@@H](Cc1c[nH]c2ccccc12)C(=O)N[C@@H](CO)C(=O)N[C@@H](Cc1c[nH]c2ccccc12)C(=O)N[C@@H](CC(C)C)C(=O)N[C@@H](CCC(N)=O)C(=O)N[C@H](C(=O)N[C@@H](CCC(=O)O)C(=O)NN=Cc1ccc(C(=O)OCCC(F)(F)C(F)(F)C(F)(F)C(F)(F)C(F)(F)C(F)(F)F)cc1)[C@@H](C)O [NBD-F] (H-TALDWSWLQTE-X1), the LDH release [1] was “concentration‐dependent” and the Relative hemolysis [2] was “relatively low hemolytic rate”.

In the case of “{FITC}-TALDWSWLQTE-NHNH2 [^FINBD-F, FITC‐labeled NBD peptide after fluorous tag modification]”, the “Efficiency of intracellular delivery (fluorescence intensity)” value ([3]; 10 µM NBD, 6 h, confocal microscopy and flow cytometry, n = 3, compared with ^FINBD and ^FINBD‐T) is reported as “noticeably improved the efficiency of intracellular delivery”, the Internalization mechanism ([3]; 1 h pretreatment with EIPA 100 µM, MβCD 10 mM, GEN 700 µM, CPZ 20 µM or 4 °C, then 6 h peptide) is reported as “mediated through multiple endocytosis pathways” and the “Cellular uptake and endosomal escape” value ([3]; confocal, fluorescence dispersed throughout the cells after an hour of incubation) is reported as “rapid and efficient”.
